According to US20020111274A1, “1-alkyl-3-[1-(substituted phenyl) benzotriazol-6-yl] uracils” (BASF Aktiengesellschaft, priority 2000, published 2002):

Key:
Set-up in all cases: scale not given here
[1] = system: ABUTH Velvetleaf; experiment: Postemergence herbicidal evaluation, ABUTH; assay type: in vivo, Abutilon theophrasti, Medic.; settings: postemergence spray, rated about two-three weeks after treatment
Method in brief: (§1)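 Plants are raised for roughly two weeks, then treated postemergence with compound dispersed in acetone/water (80/20) plus 1.0% seed oil adjuvant, at rates of about 0.006 kg to 0.400 kg per hectare. After greenhouse care, damage is scored two to three weeks later.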

[2] = system: AMBEL Ragweed, Common; experiment: Postemergence herbicidal evaluation, AMBEL; assay type: in vivo, Ambrosia artemisifolia, L.; settings: postemergence spray, rated about two-three weeks after treatment
Method in brief: as §1

[3] = system: CASOB Sicklepod; experiment: Postemergence herbicidal evaluation, CASOB; assay type: in vivo, Cassia obtusifolia, L.; settings: postemergence spray, rated about two-three weeks after treatment
Method in brief: as §1

[4] = system: CHEAL Lambsquarters, Common; experiment: Postemergence herbicidal evaluation, CHEAL; assay type: in vivo, Chenopodium album, L.; settings: postemergence spray, rated about two-three weeks after treatment
Method in brief: as §1

[5] = system: ECHOG Barnyardgrass; experiment: Postemergence herbicidal evaluation, ECHOG; assay type: in vivo, Echinochloa crus-galli, (L.) Beau; settings: postemergence spray, rated about two-three weeks after treatment
Method in brief: as §1

[6] = system: GALAP Galium; experiment: Postemergence herbicidal evaluation, GALAP; assay type: in vivo, Galium aparine; settings: postemergence spray, rated about two-three weeks after treatment
Method in brief: as §1

[7] = system: IPOHE Morningglory, Ivyleaf; experiment: Postemergence herbicidal evaluation, IPOHE; assay type: in vivo, Ipomoea hederacea, (L.) Jacq.; settings: postemergence spray, rated about two-three weeks after treatment
Method in brief: as §1

[8] = system: SETVI Foxtail, Green; experiment: Postemergence herbicidal evaluation, SETVI; assay type: in vivo, Setaria viridis, (L.) Beau; settings: postemergence spray, rated about two-three weeks after treatment
Method in brief: as §1

[9] = system: GLXMAW Soybean, Williams; experiment: Postemergence herbicidal evaluation, GLXMAW; assay type: in vivo, Glycine max, (L.) Merr. cv Williams; settings: postemergence spray, rated about two-three weeks after treatment
Method in brief: as §1

[10] = system: TRZAWR Wheat, Winter, cv Riband; experiment: Postemergence herbicidal evaluation, TRZAWR; assay type: in vivo, Triticum aestivum; settings: postemergence spray, rated about two-three weeks after treatment
Method in brief: as §1

[11] = system: ORYSAT Rice, Tebonnet; experiment: Postemergence herbicidal evaluation, ORYSAT; assay type: in vivo, Oryza sativa, (L.); settings: postemergence spray, rated about two-three weeks after treatment
Method in brief: as §1

[12] = system: ZEAMX Corn, Field; experiment: Postemergence herbicidal evaluation, ZEAMX; assay type: in vivo, Zea mays, L. (Sammel-Bezeichnung); settings: postemergence spray, rated about two-three weeks after treatment
Method in brief: as §1

[13] = system: ABUTH Velvetleaf; experiment: Preemergence herbicidal evaluation, ABUTH; assay type: in vivo, Abutilon theophrasti, Medic.; settings: preemergence
Method in brief: (§2)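 Preemergence soil spray: aqueous acetone, ~0.013–0.800 kg/ha, applied right after sowing (seed/potting-soil mix over ~1 in soil). Greenhouse, routine watering. Scored 4–5 wk post-treatment on a rating scale.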

[14] = system: AMBEL Ragweed, Common; experiment: Preemergence herbicidal evaluation, AMBEL; assay type: in vivo, Ambrosia artemisifolia, L.; settings: preemergence
Method in brief: as §2

[15] = system: CASOB Sicklepod; experiment: Preemergence herbicidal evaluation, CASOB; assay type: in vivo, Cassia obtusifolia, L.; settings: preemergence
Method in brief: as §2

[16] = system: CHEAL Lambsquarters, Common; experiment: Preemergence herbicidal evaluation, CHEAL; assay type: in vivo, Chenopodium album, L.; settings: preemergence
Method in brief: as §2

[17] = system: ECHOG Barnyardgrass; experiment: Preemergence herbicidal evaluation, ECHOG; assay type: in vivo, Echinochloa crus-galli, (L.) Beau; settings: preemergence
Method in brief: as §2

[18] = system: GALAP Galium; experiment: Preemergence herbicidal evaluation, GALAP; assay type: in vivo, Galium aparine; settings: preemergence
Method in brief: as §2

[19] = system: IPOHE Morningglory, Ivyleaf; experiment: Preemergence herbicidal evaluation, IPOHE; assay type: in vivo, Ipomoea hederacea, (L.) Jacq.; settings: preemergence
Method in brief: as §2

[20] = system: SETVI Foxtail, Green; experiment: Preemergence herbicidal evaluation, SETVI; assay type: in vivo, Setaria viridis, (L.) Beau; settings: preemergence
Method in brief: as §2

[21] = system: GLXMAW Soybean, Williams; experiment: Preemergence herbicidal evaluation, GLXMAW; assay type: in vivo, Glycine max, (L.) Merr. cv Williams; settings: preemergence
Method in brief: as §2

[22] = system: TRZAWR Wheat, Winter, cv Riband; experiment: Preemergence herbicidal evaluation, TRZAWR; assay type: in vivo, Triticum aestivum; settings: preemergence
Method in brief: as §2

[23] = system: ORYSAT Rice, Tebonnet; experiment: Preemergence herbicidal evaluation, ORYSAT; assay type: in vivo, Oryza sativa, (L.); settings: preemergence
Method in brief: as §2

[24] = system: ZEAMX Corn, Field; experiment: Preemergence herbicidal evaluation, ZEAMX; assay type: in vivo, Zea mays, L. (Sammel-Bezeichnung); settings: preemergence
Method in brief: as §2

COCc1ccccc1-n1nnc2cc(F)c(-n3c(=O)cc(C(F)(F)F)n(C)c3=O)cc21 [Example 26]
1.0: Postemergence herbicidal rating CASOB ([3]; 0.008 kg/ha) | Postemergence herbicidal rating ECHCG ([5]; 0.008 kg/ha) | Postemergence herbicidal rating ECHCG ([5]; 0.016 kg/ha) | Postemergence herbicidal rating ECHCG ([5]; 0.032 kg/ha) | Postemergence herbicidal rating GALAP ([6]; 0.008 kg/ha) | Postemergence herbicidal rating GALAP ([6]; 0.016 kg/ha) | Postemergence herbicidal rating SETVI ([8]; 0.008 kg/ha) | ECHCG herbicidal rating ([17]; rate 0.016 kg/ha) | GLXMAW herbicidal rating ([21]; rate 0.016 kg/ha) | ZEAMX herbicidal rating ([24]; rate 0.016 kg/ha)
9.0: Postemergence herbicidal rating ABUTH ([1]; 0.008 kg/ha) | Postemergence herbicidal rating ABUTH ([1]; 0.016 kg/ha) | Postemergence herbicidal rating ABUTH ([1]; 0.032 kg/ha) | Postemergence herbicidal rating ABUTH ([1]; 0.062 kg/ha) | Postemergence herbicidal rating AMBEL ([2]; 0.062 kg/ha) | Postemergence herbicidal rating CHEAL ([4]; 0.032 kg/ha) | Postemergence herbicidal rating IPOHE ([7]; 0.016 kg/ha) | Postemergence herbicidal rating IPOHE ([7]; 0.032 kg/ha) | Postemergence herbicidal rating IPOHE ([7]; 0.062 kg/ha) | Postemergence herbicidal rating GLXMAW ([9]; 0.062 kg/ha) | ABUTH herbicidal rating ([13]; rate 0.016 kg/ha) | ABUTH herbicidal rating ([13]; rate 0.032 kg/ha) | ABUTH herbicidal rating ([13]; rate 0.062 kg/ha) | ABUTH herbicidal rating ([13]; rate 0.125 kg/ha) | AMBEL herbicidal rating ([14]; rate 0.125 kg/ha) | CHEAL herbicidal rating ([16]; rate 0.062 kg/ha) | CHEAL herbicidal rating ([16]; rate 0.125 kg/ha) | ECHCG herbicidal rating ([17]; rate 0.125 kg/ha) | IPOHE herbicidal rating ([19]; rate 0.032 kg/ha) | IPOHE herbicidal rating ([19]; rate 0.125 kg/ha) | SETVI herbicidal rating ([20]; rate 0.032 kg/ha) | SETVI herbicidal rating ([20]; rate 0.062 kg/ha) | SETVI herbicidal rating ([20]; rate 0.125 kg/ha) | GLXMAW herbicidal rating ([21]; rate 0.062 kg/ha)
0.0: CASOB herbicidal rating ([15]; rate 0.016 kg/ha) | CASOB herbicidal rating ([15]; rate 0.032 kg/ha) | GALAP herbicidal rating ([18]; rate 0.016 kg/ha) | GALAP herbicidal rating ([18]; rate 0.032 kg/ha) | IPOHE herbicidal rating ([19]; rate 0.016 kg/ha) | TRZAWR herbicidal rating ([22]; rate 0.016 kg/ha) | ORYSAT herbicidal rating ([23]; rate 0.016 kg/ha)
4.5: Postemergence herbicidal rating GLXMAW ([9]; 0.008 kg/ha) | Postemergence herbicidal rating ORYSAT ([11]; 0.062 kg/ha)
6.5: Postemergence herbicidal rating ZEAMX ([12]; 0.062 kg/ha)
3.0: Postemergence herbicidal rating ECHCG ([5]; 0.062 kg/ha) | Postemergence herbicidal rating TRZAWR ([10]; 0.032 kg/ha) | Postemergence herbicidal rating ORYSAT ([11]; 0.032 kg/ha) | ORYSAT herbicidal rating ([23]; rate 0.032 kg/ha)
4.0: Postemergence herbicidal rating AMBEL ([2]; 0.008 kg/ha) | Postemergence herbicidal rating CASOB ([3]; 0.062 kg/ha) | Postemergence herbicidal rating IPOHE ([7]; 0.008 kg/ha) | Postemergence herbicidal rating TRZAWR ([10]; 0.062 kg/ha) | Postemergence herbicidal rating ZEAMX ([12]; 0.016 kg/ha) | Postemergence herbicidal rating ZEAMX ([12]; 0.032 kg/ha) | ZEAMX herbicidal rating ([24]; rate 0.032 kg/ha)
3.5: Postemergence herbicidal rating ZEAMX ([12]; 0.008 kg/ha)
5.5: Postemergence herbicidal rating GLXMAW ([9]; 0.032 kg/ha)
8.0: GALAP herbicidal rating ([18]; rate 0.125 kg/ha) | TRZAWR herbicidal rating ([22]; rate 0.125 kg/ha)
2.0: Postemergence herbicidal rating CASOB ([3]; 0.016 kg/ha) | Postemergence herbicidal rating CASOB ([3]; 0.032 kg/ha) | Postemergence herbicidal rating CHEAL ([4]; 0.008 kg/ha) | Postemergence herbicidal rating GALAP ([6]; 0.032 kg/ha) | Postemergence herbicidal rating SETVI ([8]; 0.032 kg/ha) | Postemergence herbicidal rating TRZAWR ([10]; 0.008 kg/ha) | Postemergence herbicidal rating ORYSAT ([11]; 0.008 kg/ha) | Postemergence herbicidal rating ORYSAT ([11]; 0.016 kg/ha) | AMBEL herbicidal rating ([14]; rate 0.016 kg/ha) | SETVI herbicidal rating ([20]; rate 0.016 kg/ha) | GLXMAW herbicidal rating ([21]; rate 0.032 kg/ha)
5.0: Postemergence herbicidal rating SETVI ([8]; 0.016 kg/ha) | Postemergence herbicidal rating SETVI ([8]; 0.062 kg/ha) | Postemergence herbicidal rating GLXMAW ([9]; 0.016 kg/ha) | GLXMAW herbicidal rating ([21]; rate 0.125 kg/ha) | ORYSAT herbicidal rating ([23]; rate 0.062 kg/ha)
2.5: Postemergence herbicidal rating TRZAWR ([10]; 0.016 kg/ha)
7.0: Postemergence herbicidal rating AMBEL ([2]; 0.032 kg/ha) | Postemergence herbicidal rating CHEAL ([4]; 0.016 kg/ha) | AMBEL herbicidal rating ([14]; rate 0.032 kg/ha) | AMBEL herbicidal rating ([14]; rate 0.062 kg/ha) | CASOB herbicidal rating ([15]; rate 0.062 kg/ha) | CASOB herbicidal rating ([15]; rate 0.125 kg/ha) | CHEAL herbicidal rating ([16]; rate 0.032 kg/ha) | ECHCG herbicidal rating ([17]; rate 0.062 kg/ha) | GALAP herbicidal rating ([18]; rate 0.062 kg/ha) | ORYSAT herbicidal rating ([23]; rate 0.125 kg/ha) | ZEAMX herbicidal rating ([24]; rate 0.062 kg/ha) | ZEAMX herbicidal rating ([24]; rate 0.125 kg/ha)
6.0: Postemergence herbicidal rating AMBEL ([2]; 0.016 kg/ha) | Postemergence herbicidal rating GALAP ([6]; 0.062 kg/ha) | ECHCG herbicidal rating ([17]; rate 0.032 kg/ha) | IPOHE herbicidal rating ([19]; rate 0.062 kg/ha) | TRZAWR herbicidal rating ([22]; rate 0.062 kg/ha)
